Measurements taken from ChEMBL document CHEMBL4049411, “Rational Design, Synthesis, and Biological Evaluation of Heterocyclic Quinolones Targeting the Respiratory Chain of Mycobacterium tuberculosis” (J Med Chem, 2017).

Tests used:
[1] = system: Mycobacterium tuberculosis; assay: Growth inhibition of multi-drug resistant Mycobacterium tuberculosis 05TB42059; assay type: functional
[2] = system: Mycobacterium tuberculosis; assay: Growth inhibition of multi-drug resistant Mycobacterium tuberculosis DQ707 harboring katG S315N mutant; assay type: functional

Cc1c(-c2ccc(N3CCC(F)(F)C3)cc2)[nH]c2cc(F)cc(F)c2c1=O
IC50 [1]: 140 nM
IC50 [2]: 548 nM
